Test results as given in patent publication US5679708A, “Epoxysuccinic acid derivatives, their production and use” (Takeda Chemical Industries, Ltd., priority 1994, dated 1997).
Structures can show the parent of a compound that is named as a salt.

Legend:
[1] = target: T1, human recombinant cathepsin L (Homo sapiens, UniProt P07711); test: Determination of cathepsin L inhibitory activity; assay type: biochemical; settings: human recombinant cathepsin L 1 ng; 20 μM Z-Phe-Arg-7MCA; pH 5.5; 37° C., 20 minutes; read-out: Inhibitory activity potency IC50 (Cathepsin L) (converted)
T1 construct: they were identified as a precursor of human cathepsin L and a product processed therefrom; made in house; host or cells: mouse myeloma Sp2/0 cells stably transformed with pTBN-HCLneo (Sp-HCL26); secreted, purified from serum-free culture supernatant
T1 sequence (P07711 114-333): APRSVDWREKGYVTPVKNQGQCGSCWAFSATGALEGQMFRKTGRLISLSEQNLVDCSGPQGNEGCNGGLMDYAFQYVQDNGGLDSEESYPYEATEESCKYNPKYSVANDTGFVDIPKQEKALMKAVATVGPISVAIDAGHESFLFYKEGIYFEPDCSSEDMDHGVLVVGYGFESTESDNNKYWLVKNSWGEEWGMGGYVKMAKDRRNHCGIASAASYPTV
Experimental: (a) Determination of cathepsin L inhibitory activity
To 75 μl of a reaction mixture containing 1 ng of human recombinant cathepsin L (those produced in Reference Examples 1 through 7 below were employed), 2 μM of dithiothreitol (hereinafter abbreviated as DTT), 1 mM of ethylenediaminetetraacetate disodium salt, 0.1M of a sodium acetate buffer solution (pH 5.5) and various concentrations of the sample, 25 μl of 20 μM benzyloxycarbonyl-L-phenylalanyl-L-arginine-4-methylcoumaryl-7-amide (hereinafter simply referred to as Z-Phe-Arg-7MCA, manufactured by Peptide Institute, Inc.) was added to initiate the reaction, and the reaction mixture was incubated at 37° C. for 20 minutes, followed by addition of 100 μl of a solution containing 100 mM of sodium monochloroacetate to suspend the reaction. The amount of liberated 4-methyl-7-aminocoumarin was determined at an excitation wavelength of 365 nm and a fluorescence wavelength of 450 nm, using a fluorophotometer (FCA: manufactured by Baxter Labs). The sample concentration required to cause 50% inhibition was expressed as the IC50 value, with the fluorescence value obtained from the same reaction in the absence of the sample taken as 100%.

[2] = system: bone resorption as enhanced by PTH (parathyroid hormone); test: Determination of bone resorption suppressive activity (PTH-enhanced, isolated mouse femur culture); assay type: cell-based, female BALB/c mice; settings: 168 h, test compound 10 μg/ml, PTH 1 μM, 7 days culture, total calcium content, 100x(Cp-Cs)/(Cp-Cc)
Experimental: Further, the compound (I) of this invention or salts thereof have an excellent activity of suppressing bone resorption. Their suppressive action against bone resorption as enhanced by PTH (parathyroid hormone) was determined by the method described below. The results are shown in [Table 3].
Determination of bone resorption suppressive activity
Femurs were aseptically isolated from female BALB/c mice at 8-10 weeks of age. After the bone marrow cavity was washed with a Ham's F-12 medium containing 10% (w/w) thermally inactivated fetal calf serum, 100 unit/ml penicillin G and 100 unit/ml streptomycin (hereinafter referred to as culture broth), each femur was added to 1 ml of the culture broth and precultured for 3 hours at 37° C. in the presence of 5% carbon dioxide gas and 95% air. Each bone was transferred to 1 ml of the culture broth supplemented with PTH (produced by Peptide Institute, Inc., final concentration of 1 μM) and the test compound (final concentration 10 μg/ml (and cultured for 7 more days, after which the total calcium content in the culture broth was determined using Calcium E-Test Wako (manufactured by Wako Pure Chemical Industries, Ltd.). The bone resorption suppressive activity of the test compound was calculated using the following equation:
Bone resorption suppressive activity(%)=100x(Cp-Cs)/(Cp-Cc)
Cc: Total calcium content in the culture broth containing neither PTH nor test compound
Cp: Total calcium content in the culture broth containing PTH
Cs: Total calcium content in the culture broth containing both PTH and test compound

Toxicity study = assay type: in vivo; settings: rats, orally, 300 mg/kg
Experimental: Compound 1 caused no death in rats when it was orally administered at 300 mg/kg.

cathepsin B = target: T2, cathepsin B (Homo sapiens, UniProt P07858); test: Determination of cathepsin B inhibitory activity; assay type: biochemical; settings: cathepsin B 30 ng (Sigma); 20 μM Z-Phe-Arg-7MCA; pH 5.5; 37° C., 20 minutes; read-out: Inhibitory activity potency IC50 (TABLE 2, head printed Cathepsin L) (converted)
T2 construct: purchased Sigma Chemical Co
Experimental: (b) Determination of cathepsin B inhibitory activity
To 75 μl of a reaction mixture containing 30 ng of cathepsin B (produced by Sigma Chemical Co.), 2 μM DTT, 1 mM ethylenediaminetetraacetate disodium salt, 0.1M sodium acetate buffer (pH 5.5) and various concentrations of the sample, 25 μl of 20 μM Z-Phe-Arg-7MCA was added to initiate the reaction, and the reaction mixture was incubated at 37° C. for 20 minutes, followed by addition of 100 μl of a solution containing 100 mM sodium monochloroacetate to suspend the reaction. The amount of liberated 4-methyl-7-aminocoumarin was determined at an excitation wavelength of 365 nm and a fluorescence wavelength of 450 nm, using a fluorophotometer. The sample concentration required to cause 50% inhibition was expressed as the IC50 value, with the fluorescence value obtained from the same reaction in the absence of the sample taken as 100%.

SMILES | IC50 [1] | inhibition at 10 µg/mL [2] | death after oral administration (Toxicity study) | IC50 (cathepsin B)
COCCCNC(=O)[C@H](Cc1ccccc1)NC(=O)[C@H]1O[C@@H]1C(=O)O [Compound 2, N-[N-[(2S,3S)-3-trans-carboxyoxirane-2-carbonyl]-L-phenylalanyl]-1-amino-3-methoxypropane monosodium salt] | 8.56 nM |  |  | 
CC(=O)OCCCNC(=O)[C@H](Cc1ccccc1)NC(=O)[C@H]1O[C@@H]1C(=O)O [Compound 6, N-[N-[(2S,3S)-3-trans-carboxyoxirane-2-carbonyl]-L-phenylalanyl]-3-amino-acetoxypropane monosodium salt] | 13.2 nM | 144% |  | 
CCOC(=O)[C@H]1O[C@@H]1C(=O)N[C@@H](Cc1ccccc1)C(=O)NCCCOC [Compound 1, N-[N-[(2S,3S)-3-trans-ethoxycarbonyloxysirane-2-carbonyl]-L-phenylalanyl]-1-amino-3-methoxypropane] |  |  | no death | 
CSCCCNC(=O)[C@H](Cc1ccccc1)NC(=O)[C@H]1O[C@@H]1C(=O)O [Compound 8, N-[N-[(2S,3S)-3-trans-carboxyoxirane-2-carbonyl]-L-phenylalanyl]-1-amino-3-methylthiopropane monosodium salt] | 8.19 nM | 142% |  | 5.46 nM
O=C(NCCCO)[C@H](Cc1ccccc1)NC(=O)[C@H]1O[C@@H]1C(=O)O [Compound 4, N-[N-[(2S,3S)-3-trans-carboxyoxirane-2-carbonyl]-L-phenylalanyl]-3-amino-1-propanol monosodium salt] |  | 176% |  | 
